The record followed here is patent US20160166560A1, “Urea Compounds and Their Use as FAAH Enzyme Inhibitors” (BIAL-PORTELA & Cª, S.A., priority 2013, published 2016).

One data set concerns CYPs. Description: CYPs metabolic stability assay in HLM (human liver microsomes). In kind it is in vitro ADME. To be noted: HLM 1 mg/ml protein, compound 5 μM, 60 min, 37° C.; for Control (% remain): absence of NADPH; for CYP+ (% remain): with NADPH 1 mM. The procedure: Stability of the test compounds was performed in HLM (human liver microsomes) in the presence and in the absence of NADPH.
The stability was measured using the incubation mixture (100 μl total volume) contained 1 mg/ml total protein, MgCl2 5 mM and 50 mM K-phosphate buffer. Samples were incubated in the presence and in the absence of NADPH 1 mM. Reactions were pre-incubated 5 min and the reaction initiated with the compound under test (at a concentration of 5 μM). Samples were incubated for 60 min in a shaking water bath at 37° C. The reaction was stopped by adding 100 μl of acetonitrile. Samples were then centrifuged, filtered and supematant injected in HLPC-MSD. Test compounds were dissolved in DMSO and the final concentration of DMSO in the reaction was below 0.5% (v/v). At T0 acetonitrile was added before adding the compound. All experiments were performed with samples in duplicate.

The target of data set [1] is T1, FAAH (Mus musculus, UniProt O08914).
T1 sequence (O08914 1-579): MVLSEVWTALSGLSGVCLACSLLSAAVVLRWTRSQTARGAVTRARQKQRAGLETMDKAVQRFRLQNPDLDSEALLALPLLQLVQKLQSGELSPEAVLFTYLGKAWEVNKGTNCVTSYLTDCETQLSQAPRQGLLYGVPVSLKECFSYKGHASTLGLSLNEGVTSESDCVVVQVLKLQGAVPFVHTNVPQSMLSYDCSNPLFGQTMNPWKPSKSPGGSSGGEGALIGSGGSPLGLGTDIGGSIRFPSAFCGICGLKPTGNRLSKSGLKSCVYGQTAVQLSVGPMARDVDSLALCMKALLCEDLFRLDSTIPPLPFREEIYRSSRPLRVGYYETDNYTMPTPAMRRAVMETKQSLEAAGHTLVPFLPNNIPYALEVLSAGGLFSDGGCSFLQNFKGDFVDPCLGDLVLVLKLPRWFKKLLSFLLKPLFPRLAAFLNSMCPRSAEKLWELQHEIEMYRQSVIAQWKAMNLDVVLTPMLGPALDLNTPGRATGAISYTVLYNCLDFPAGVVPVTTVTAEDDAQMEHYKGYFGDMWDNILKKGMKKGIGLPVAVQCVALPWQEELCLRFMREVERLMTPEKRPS
Briefly: In vitro/ex vivo FAAH activity determination in brain after intra-tracheal instillation. Also noted: Liver and brain fragments were removed and processed for enzymatic activity determination; from tissue; species or system male NMRI mice. To be noted: remaining enzymatic activity vs controls, 1 mg/kg intra-tracheal instillation, sacrificed after 8 h. The procedure:
(§1) To evaluate the selectivity of test compounds in inhibiting FAAH activity, male NMRI mice were administrated following instillation with 1 mg/kg compound and were sacrificed after 8 h treatment. Liver and brain fragments were removed and processed for enzymatic activity determination.
(§2) FAAH activity was measured as the amount of ^3H-ethanolamine formed, by liquid scintillation counting, from the hydrolysis of the substrate anandamide (AEA, labeled with ^3H on the ethanolamine part of the molecule). The percentage of remaining enzymatic activity was calculated in respect to controls and after blank subtraction. Therefore, a low value for the test compounds indicates a strong inhibitor.
(§3) Male NMRI mice (body weight range: 25-35 g) were obtained from Harlan Laboratories (Barcelona, Spain). Animals were kept 10 per cage, under controlled environmental conditions (12 hr light [8 am]/12 hr dark [8 pm]cycle; room temperature 22±1° C.). Food and tap water were allowed ad libitum. Animals were habituated to the animal facilities at least for a week prior to experiments. The experiments were all carried out during daylight hours.
(§4) Animals were fasted overnight before administration of compounds. […] After administration the animals were given atipamezole (1 mg/kg) to reverse the sedative and analgesic effects induced by the anaesthesia.
(§5) Fifteen minutes before sacrifice, animals were anesthetized with pentobarbital 60 mg/kg administrated intra-peritoneally. The brain (without cerebellum) and a fragment of liver were collected into plastic vials containing membrane buffer (3 mM MgCl2, 1 mM EDTA, 50 mM Tris HCl, pH 7.4). Glass beads (2.5 mm BioSpec Products, Bartlesville, Okla., USA) were added to the vials containing the brain and liver tissues. Tissues were stored at −20° C. until analysis.
(§6) Anandamide [ethanolamine-1-^3H-] was obtained from American Radiochemicals—with a specific activity of 60 Ci/mmol. All other reagents were obtained from Sigma-Aldrich. Optiphase Supermix was obtained from Perkin Elmer.
(§7) Brain and liver tissues were thawed and homogenized in 10 volumes of membrane buffer (3 mM MgCl2, 1 mM EDTA, 50 mM Tris HCl, pH 7.4) with homogenizer Precellys 24 Dual Tissue Homogenizer (Bertin Technologies) for 2 cycles of 5 sec (5000 rpm).
(§8) Total protein in the tissue homogenates was determined with the BioRad Protein Assay (BioRad) using a standard curve of BSA ([…]). Tissue homogenates were diluted to appropriate concentration for enzymatic determination in assay buffer (1 mM EDTA, 10 mM Tris HCl, pH 7.6).
(§9) Reaction mix (total volume 200 μL) contained 2 μM AEA (2 μM AEA+5 nM ^3H-AEA), 0.1% fatty acid free BSA, 15 μg (brain) or 5 μg (liver) protein, in assay buffer (1 mM EDTA, 10 mM Tris pH 7.6).
(§10) The test compound was used at a level of 1 mg/kg protein. After 15 minutes pre-incubation at 37° C. of the protein sample, reaction was started by the addition of the substrate solution (cold AEA+radiolabelled AEA+BSA). Reaction was carried out for 12 minutes for brain and liver tissues. Reaction was terminated by addition of 400 μL chloroform:methanol (1:1, v/v) solution. Reaction samples were vortex twice, left on ice for 5 minutes and then centrifuged in the microfuge for 7 minutes, 7000 rpm. 200 μL of the obtained supernatants were added to […] Optiphase Supermix scintillation cocktail previously distributed in 24-well plates.
(§11) Counts per minute (cpm) were determined in a Microbeta TriLux scintillation counter. In each assay blank samples (without protein) were prepared.

For data set [2], the target named is T1, FAAH. Briefly: In vitro/ex vivo FAAH activity determination in liver after intra-tracheal instillation. The settings on record: remaining enzymatic activity vs controls, 1 mg/kg intra-tracheal instillation, sacrificed after 8 h. Also noted: Liver and brain fragments were removed and processed for enzymatic activity determination; from tissue; host or cells: mouse liver fragment homogenate; species or system male NMRI mice. Here is the method: as §1, §2, §3, §4, §5, §6, §7, §8, §9, §10, §11

Where a name gives a salt, the structure may show the parent alone.

For `CN(C(=O)n1cnc(-c2cccc(NS(C)(=O)=O)c2)c1)C1CCN(Cc2ccccc2)CC1` [Example 1, N-(1-benzylpiperidin-4-yl)-N-methyl-4-(3-(methylsulfonamido)phenyl)-1H-imidazole-1-carboxamide hydrochloride], in the data set with CYPs, the “Control (% remain)” value is recorded as 111.4 % remain and the “CYP+ (% remain)” value is 30.2 % remain. Also, the “FAAH Activity - Brain itc (% C)” value at FAAH [1] is reported as 79.0 % C. The “FAAH Activity - Liver itc (% C)” value at FAAH [2] is 3.2 % C.
Turning to `CN(C(=O)n1cnc(-c2cccc(NS(N)(=O)=O)c2)c1)C1CCN(Cc2ccccc2)CC1` [Example 2, N-(1-benzylpiperidin-4-yl)-N-methyl-4-(3-(sulfamoylamino)phenyl)-1H-imidazole-1-carboxamide hydrochloride], in the data set on CYPs, the “Control (% remain)” value was determined as 98.3 % remain and the “CYP+ (% remain)” value was found to be 68.6 % remain. The “FAAH Activity - Brain itc (% C)” value at FAAH [1] was found to be 86.8 % C. Besides, the “FAAH Activity - Liver itc (% C)” value on FAAH [2] is recorded as 5.1 % C.
In the same order, the values of `COc1cccc(CN2CCC(N(C)C(=O)n3cnc(-c4cccc(NS(C)(=O)=O)c4)c3)CC2)c1` [Example 4, N-(1-(3-methoxybenzyl)piperidin-4-yl)-N-methyl-4-(3-(methylsulfonamido)phenyl)-1H-imidazole-1-carboxamide hydrochloride] are 100 % remain, 11.2 % remain, 98.7 % C and 7.2 % C.
`COc1ccc(CN2CCC(N(C)C(=O)n3cnc(-c4cccc(NS(C)(=O)=O)c4)c3)CC2)cc1OC` [Example 5, N-(1-(3,4-dimethoxybenzyl)piperidin-4-yl)-N-methyl-4-(3-(methylsulfonamido)phenyl)-1H-imidazole-1-carboxamide hydrochloride]: in the data set with CYPs, the “Control (% remain)” value is on record as 100 % remain and the “CYP+ (% remain)” value is recorded as 77.3 % remain. In addition, the “FAAH Activity - Brain itc (% C)” value at FAAH [1] stood at 104.7 % C. Also, at FAAH [2], the “FAAH Activity - Liver itc (% C)” value was 5.7 % C.
With `CN(C(=O)n1cnc(-c2cccc(OS(N)(=O)=O)c2)c1)C1CCN(c2ccccc2)CC1` [Example 6, 3-(1-(methyl(1-phenylpiperidin-4-yl)carbamoyl)-1H-imidazol-4-yl)phenyl sulfamate hydrochloride], in the data set on CYPs, the “Control (% remain)” value was determined as 88.7 % remain and the “CYP+ (% remain)” value turned out to be 12.0 % remain. The “FAAH Activity - Brain itc (% C)” value on FAAH [1] worked out at 82.1 % C. In addition, at FAAH [2], the “FAAH Activity - Liver itc (% C)” value came out at 1.7 % C.
In the same order, the values of `CN(C(=O)n1cnc(-c2cccc(OS(N)(=O)=O)c2)c1)C1CCN(Cc2ccccc2)CC1` [Example 7, 3-(1-((1-benzylpiperidin-4-yl)(methyl)carbamoyl)-1H-imidazol-4-yl)phenyl sulfamate hydrochloride] are 92.6 % remain, 65.0 % remain, 87.2 % C and 3.5 % C.
In the case of `COc1cccc(CN2CCC(N(C)C(=O)n3cnc(-c4cccc(C(N)=O)c4)c3)CC2)c1` [Example 13, 4-(3-carbamoylphenyl)-N-(1-(3-methoxybenzyl)piperidin-4-yl)-N-methyl-1H-imidazole-1-carboxamide hydrochloride], in the data set with CYPs, the “Control (% remain)” value is 103.5 % remain and the “CYP+ (% remain)” value is listed as 25.1 % remain.
For the compound `COc1cc(CN2CCC(N(C)C(=O)n3cnc(-c4ccc(OS(N)(=O)=O)cc4)c3)CC2)cc(OC)c1` [Example 19, 4-(1-((1-(3,5-dimethoxybenzyl)piperidin-4-yl)(methyl)carbamoyl)-1H-imidazol-4-yl)phenyl sulfamate maleate], on FAAH [1] (maleate, 1 mg/kg), the “FAAH Activity - Brain itc (% C)” value is recorded as 99.2 % C. Further, the “FAAH Activity - Liver itc (% C)” value on FAAH [2] (maleate, 1 mg/kg) turned out to be 9.2 % C.
As for `COc1cccc(CN2CCC(N(C)C(=O)n3cnc(-c4cccc(NS(N)(=O)=O)c4)c3)CC2)c1.O=C(O)/C=C\C(=O)O.O=C(O)/C=C\C(=O)O` [Example 20, N-(1-(3-methoxybenzyl)piperidin-4-yl)-N-methyl-4-(3-(sulfamoylamino)phenyl)-1H-imidazole-1-carboxamide dimaleate], the “FAAH Activity - Brain itc (% C)” value on FAAH [1] amounted to 86.4 % C. Also, the “FAAH Activity - Liver itc (% C)” value on FAAH [2] is 15.8 % C.
On to `CN(C(=O)n1cnc(-c2cccc(NC(N)=O)c2)c1)C1CCN(Cc2ccccc2)CC1` [Example 22, N-(1-benzylpiperidin-4-yl)-N-methyl-4-(3-ureidophenyl)-1H-imidazole-1-carboxamide methanesulfonate], for which the “FAAH Activity - Brain itc (% C)” value on FAAH [1] (methanesulfonate, 1 mg/kg) is on record as 113.8 % C. Moreover, the “FAAH Activity - Liver itc (% C)” value on FAAH [2] (methanesulfonate, 1 mg/kg) came to 10.7 % C.
Take `CN(C(=O)n1cnc(-c2cccc(C(N)=O)c2)c1)C1CCN(Cc2ccccc2O)CC1` [Example 36, 4-(3-carbamoylphenyl)-N-(1-(2-hydroxybenzyl)piperidin-4-yl)-N-methyl-1 H-imidazole-1-carboxamide hydrochloride]: the “FAAH Activity - Brain itc (% C)” value on FAAH [1] is 94.4 % C. Besides, the “FAAH Activity - Liver itc (% C)” value at FAAH [2] is 8.6 % C.
As to `CN(C(=O)n1cnc(-c2cccc(C(N)=O)c2)c1)C1CCN(c2ccccc2O)CC1` [Example 37, 4-(3-carbamoylphenyl)-N-(1-(2-hydroxyphenyl)piperidin-4-yl)-N-methyl-1H-imidazole-1-carboxamide hydrochloride], at FAAH [1], the “FAAH Activity - Brain itc (% C)” value is reported as 110.2 % C. Also, the “FAAH Activity - Liver itc (% C)” value on FAAH [2] is reported as 3.4 % C.
On to `COc1ccccc1CN1CCC(N(C)C(=O)n2cnc(-c3cccc(C(N)=O)c3)c2)CC1` [Example 38, 4-(3-carbamoylphenyl)-N-(1-(2-methoxybenzyl)piperidin-4-yl)-N-methyl-1H-imidazole-1-carboxamide hydrochloride], for which the “FAAH Activity - Brain itc (% C)” value on FAAH [1] is listed as 96.5 % C. The “FAAH Activity - Liver itc (% C)” value at FAAH [2] came to 6.0 % C.
